Each block holds one molecule with its values, some of them ahead of it. Calls of active or inactive are those of the source. The rule behind the calls is not given here.
How the values were obtained:
[1] = target: Protein arginine N-methyltransferase 5 (Homo sapiens, UniProt O14744); assay: Inhibition of PRMT5 (unknown origin)
A549 [2] = assay: Antiproliferative activity against human A549 cells assessed as reduction in cell viability at 25 uM incubated for 24 hrs by SRB assay; type: functional, cell-based
A549 [3] = assay: Antiproliferative activity against human A549 cells assessed as inhibition of cell growth incubated for 24 hrs by SRB assay; type: functional, cell-based; settings: A549, 24 h
MCF7 = assay: Antiproliferative activity against human MCF7 cells assessed as inhibition of cell growth incubated for 24 hrs by SRB assay; type: functional, cell-based; settings: MCF7, 24 h
MDA-MB-231 = assay: Antiproliferative activity against human MDA-MB-231 cells assessed as inhibition of cell growth incubated for 24 hrs by SRB assay; type: functional, cell-based; settings: MDA-MB-231, 24 h
HepG2 = assay: Antiproliferative activity against human HepG2 cells assessed as inhibition of cell growth incubated for 24 hrs by SRB assay; type: functional, cell-based; settings: HepG2, 24 h
[4] = Antiproliferative activity against human L02 cells assessed as inhibition of cell growth incubated for 24 hrs by SRB assay; type: toxicity, cell-based
[5] = target: Protein arginine N-methyltransferase 1 (Homo sapiens, UniProt Q99873); assay: Inhibition of PRMT1 (unknown origin)
Protein arginine N-methyltransferase 1, sequence (Q99873 whole entry): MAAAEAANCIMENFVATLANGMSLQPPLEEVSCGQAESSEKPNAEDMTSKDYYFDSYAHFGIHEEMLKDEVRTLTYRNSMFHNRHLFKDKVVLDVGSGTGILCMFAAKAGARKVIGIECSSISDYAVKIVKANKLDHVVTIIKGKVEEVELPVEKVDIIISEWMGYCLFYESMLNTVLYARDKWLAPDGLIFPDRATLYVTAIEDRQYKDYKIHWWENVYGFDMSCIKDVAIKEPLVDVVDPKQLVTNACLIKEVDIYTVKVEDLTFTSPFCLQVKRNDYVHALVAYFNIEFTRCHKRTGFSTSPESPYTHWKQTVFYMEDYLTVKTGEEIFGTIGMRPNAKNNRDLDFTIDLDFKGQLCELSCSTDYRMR

[6] = target: T1, Histone-arginine methyltransferase CARM1 (Homo sapiens, UniProt Q86X55); assay: Inhibition of PRMT4 (unknown origin)
T1 sequence (Q86X55 whole entry): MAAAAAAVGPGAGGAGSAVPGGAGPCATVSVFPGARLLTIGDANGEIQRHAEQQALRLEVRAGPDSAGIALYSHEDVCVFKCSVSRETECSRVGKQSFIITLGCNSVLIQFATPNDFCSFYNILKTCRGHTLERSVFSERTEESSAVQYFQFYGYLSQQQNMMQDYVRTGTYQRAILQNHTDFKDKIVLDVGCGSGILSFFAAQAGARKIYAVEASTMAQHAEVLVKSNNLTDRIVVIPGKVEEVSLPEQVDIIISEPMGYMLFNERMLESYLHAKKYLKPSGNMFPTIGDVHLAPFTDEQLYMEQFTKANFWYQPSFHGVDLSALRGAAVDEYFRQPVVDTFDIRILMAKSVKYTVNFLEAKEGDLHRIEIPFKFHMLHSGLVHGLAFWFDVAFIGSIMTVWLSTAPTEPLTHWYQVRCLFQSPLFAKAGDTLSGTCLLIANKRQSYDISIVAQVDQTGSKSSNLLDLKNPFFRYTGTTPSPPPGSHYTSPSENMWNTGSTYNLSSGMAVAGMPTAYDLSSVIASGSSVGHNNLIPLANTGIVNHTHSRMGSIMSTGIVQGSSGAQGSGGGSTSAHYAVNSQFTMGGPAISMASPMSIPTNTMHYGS

A549 [7] = assay: Anticancer activity against human A549 cells assessed as decrease in cell number incubated for 24 hrs by SRB assay; type: functional, cell-based; settings: dose 12.5-50 µM
A549 [8] = assay: Induction of apoptosis in human A549 cells assessed as nuclear fragmentation incubated for 24 hrs by Hoechst 33342 staining based analysis; type: functional, cell-based; settings: dose 12.5-50 µM
A549 [9] = assay: Induction of apoptosis in human A549 cells at 2.5 to 50 uM incubated for 24 hrs by Hoechst 33342 staining based analysis; type: functional; settings: dose 2.5-50 µM
A549 [10] = assay: Inhibition of cell migration human A549 cells assessed as decrease in migration distance at 12.5 to 25 uM incubated upto 12 hrs by wound healing assay; type: functional, cell-based; settings: dose 12.5-25 µM
A549 [11] = assay: Upregulation of hnRNP E1 gene expression in human A549 cells at 12.5 to 50 uM incubated for 24 hrs by Western blot analysis; type: functional, cell-based; settings: dose 12.5-50 µM
A549 [12] = assay: Induction of apoptosis in human A549 cells transfected in hnRNP E1 siRNA assessed as reduction in cell number incubated for 24 hrs by Hoechst 33258 staining based analysis; type: functional
A549 [13] = assay: Inhibition of cell migration human A549 cells transfected with hnRNP E1 siRNA incubated upto 12 hrs by wound healing assay; type: functional, cell-based
[14] = Metabolic stability in human liver microsome assessed as half life measured upto 4 hrs in presence of NADPH by LC-MS/MS analysis; type: ADME; settings: liver microsomes
[15] = Metabolic stability in rat liver microsome assessed as half life measured upto 4 hrs in presence of NADPH by LC-MS/MS analysis; type: ADME; settings: liver microsomes
[16] = Tmax in Sprague-Dawley rat at 10 mg/kg, po measured upto 24 hrs by LC-MS/MS analysis; type: ADME, organism-based; settings: in vivo
[17] = Cmax in Sprague-Dawley rat at 10 mg/kg, po measured upto 24 hrs by LC-MS/MS analysis; type: ADME, organism-based; settings: in vivo
[18] = Cmax in Sprague-Dawley rat at 2 mg/kg, iv measured upto 24 hrs by LC-MS/MS analysis; type: ADME, organism-based; settings: in vivo
[19] = Half life in Sprague-Dawley rat at 10 mg/kg, po measured upto 24 hrs by LC-MS/MS analysis; type: ADME, organism-based; settings: in vivo
[20] = Half life in Sprague-Dawley rat at 2 mg/kg, iv measured upto 24 hrs by LC-MS/MS analysis; type: ADME, organism-based; settings: in vivo
[21] = AUC (0 to t) in Sprague-Dawley rat at 10 mg/kg, po measured upto 24 hrs by LC-MS/MS analysis; type: ADME, organism-based; settings: in vivo
[22] = AUC (0 to t) in Sprague-Dawley rat at 2 mg/kg, iv measured upto 24 hrs by LC-MS/MS analysis; type: ADME, organism-based; settings: in vivo
[23] = AUC (0 to infinity) in Sprague-Dawley rat at 10 mg/kg, po measured upto 24 hrs by LC-MS/MS analysis; type: ADME, organism-based; settings: in vivo
[24] = AUC (0 to infinity) in Sprague-Dawley rat at 2 mg/kg, iv measured upto 24 hrs by LC-MS/MS analysis; type: ADME, organism-based; settings: in vivo
[25] = Clearance in Sprague-Dawley rat at 2 mg/kg, iv measured upto 24 hrs by LC-MS/MS analysis; type: ADME, organism-based; settings: in vivo
[26] = Volume of distribution in Sprague-Dawley rat at 2 mg/kg, iv measured upto 24 hrs by LC-MS/MS analysis; type: ADME, organism-based; settings: in vivo
[27] = Oral bioavailability in Sprague-Dawley rat at 10 mg/kg measured upto 24 hrs by LC-MS/MS analysis; type: ADME, organism-based; settings: in vivo
[28] = Bioavailability in Sprague-Dawley rat at 2 mg/kg, iv measured upto 24 hrs by LC-MS/MS analysis; type: ADME, organism-based; settings: in vivo

Protein arginine N-methyltransferase 5, sequence (O14744 whole entry): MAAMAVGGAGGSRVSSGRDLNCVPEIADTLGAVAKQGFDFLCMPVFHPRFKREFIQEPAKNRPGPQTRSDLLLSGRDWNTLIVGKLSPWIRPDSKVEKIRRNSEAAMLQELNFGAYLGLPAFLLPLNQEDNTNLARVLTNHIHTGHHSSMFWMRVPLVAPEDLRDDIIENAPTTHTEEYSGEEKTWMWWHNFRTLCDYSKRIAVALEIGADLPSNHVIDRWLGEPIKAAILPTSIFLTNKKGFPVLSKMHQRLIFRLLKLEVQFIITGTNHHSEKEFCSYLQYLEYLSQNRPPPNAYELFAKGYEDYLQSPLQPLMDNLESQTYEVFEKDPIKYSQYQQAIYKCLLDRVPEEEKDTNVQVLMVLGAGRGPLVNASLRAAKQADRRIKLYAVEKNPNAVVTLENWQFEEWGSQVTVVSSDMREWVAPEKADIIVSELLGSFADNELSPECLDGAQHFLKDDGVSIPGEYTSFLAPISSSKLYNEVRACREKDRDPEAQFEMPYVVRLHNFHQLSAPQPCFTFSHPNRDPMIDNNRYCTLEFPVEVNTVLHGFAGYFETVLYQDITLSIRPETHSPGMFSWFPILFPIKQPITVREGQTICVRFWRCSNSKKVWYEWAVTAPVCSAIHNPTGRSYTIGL

IC50 [1]: 6.4 µM
Compound: Cc1ccc2ccn(C[C@H](O)CN3CCc4ccccc4C3)c2c1
Activity (A549 [2]): Active

IC50 [1]: 0.38 µM
IC50 (A549 [3]): 29.5 µM
IC50 (MCF7): 25.2 µM
IC50 (MDA-MB-231): 60.1 µM
IC50 (HepG2): 16.8 µM
Compound: O[C@H](CN1CCc2ccccc2C1)Cn1ccc2ccc(Br)cc21
Activity (A549 [2]): Active
IC50 at 24 h [4]: > 100 µM

IC50 [1]: 1.21 µM
Compound: N#Cc1ccc2ccn(C[C@H](O)CN3CCc4ccccc4C3)c2c1
Activity (A549 [2]): Active

IC50 [1]: 33.2 µM
Compound: COc1ccc2c(ccn2C[C@H](O)CN2CCc3ccc(Br)cc3C2)c1
Activity (A549 [2]): Active

IC50 [1]: 0.12 µM
Compound: COc1ccc2c(ccn2C[C@H](O)CN2CCc3cc(O)ccc3C2)c1
Activity (A549 [2]): Active

IC50 [1]: 0.85 µM
Compound: O[C@H](CN1CCc2ccccc2C1)Cn1ccc2ccccc21
Activity (A549 [2]): Active

IC50 [1]: 61.4 µM
Compound: COc1cc2c(cc1OC)CN(C[C@@H](O)Cn1ccc3ccc(Br)cc31)CC2
Activity (A549 [2]): Active

IC50 [1]: 18.8 µM
Compound: O[C@H](CN1CCc2ccccc2C1)Cn1ccc2cc(F)ccc21
Activity (A549 [2]): Active

IC50 [5]: 10.2 µM
IC50 [6]: > 20 µM
IC50 (A549 [3]): 14.2 µM
IC50 (MCF7): 28.9 µM
IC50 (MDA-MB-231): 21.3 µM
IC50 (HepG2): 58.1 µM
half-life [14]: 0.363 h
half-life [15]: 0.0783 h
Compound: Oc1ccc2c(c1)CCN(C[C@@H](O)Cn1ccc3ccc(Br)cc31)C2
Activity (A549 [2]): Active
IC50 at 24 h [4]: > 100 µM
Activity (A549 [7]): Dose-Dependent Effect
Activity (A549 [8]): Dose-Dependent Effect
Activity (A549 [9]): 68%
Activity (A549 [10]): Active
Activity (A549 [11]): Active
Activity (A549 [12]): Active
Activity (A549 [13]): inactive

More lines, now with the values behind:

Compound: N#Cc1cccc2c1ccn2C[C@H](O)CN1CCc2ccccc2C1
IC50 [1]: 5.01 µM
Activity (A549 [2]): Active

Compound: Cc1cccc2c1ccn2C[C@H](O)CN1CCc2ccccc2C1
IC50 [1]: 1.8 µM
Activity (A549 [2]): Active

Compound: COc1ccc2c(ccn2C[C@H](O)CN2CCc3ccccc3C2)c1
IC50 [1]: 0.31 µM
IC50 [5]: > 20 µM
IC50 [6]: > 20 µM
Activity (A549 [2]): Active
IC50 (A549 [3]): 19.1 µM
IC50 (MCF7): 23.6 µM
IC50 (MDA-MB-231): 20.5 µM
IC50 (HepG2): 27.7 µM
IC50 at 24 h [4]: > 100 µM
Activity (A549 [7]): Dose-Dependent Effect
Activity (A549 [8]): Dose-Dependent Effect
Activity (A549 [9]): 68%
Activity (A549 [10]): Active
Activity (A549 [11]): Active
Activity (A549 [12]): Active
Activity (A549 [13]): inactive
half-life [14]: 2.21 h
half-life [15]: 0.342 h
Tmax [16]: 2.7 h
Cmax [17]: 160 ng/mL
Cmax [18]: 182 ng/mL
half-life [19]: 6.7 h
half-life [20]: 4.1 h
AUC(0-t) at 24 h [21]: 1970 ng·h/mL
AUC(0-t) at 24 h [22]: 1250 ng·h/mL
AUC(0-inf) [23]: 2180 ng·h/mL
AUC(0-inf) [24]: 1280 ng·h/mL
clearance [25]: 26.7 mL/min/kg
Vd [26]: 9.3 L/kg
bioavailability [27]: 31.4%
F [28]: 100%

Compound: COc1cccc2c1ccn2C[C@H](O)CN1CCc2ccccc2C1
IC50 [1]: 4.58 µM
Activity (A549 [2]): Active

Compound: CC(=O)c1cn(C[C@H](O)CN2CCc3ccccc3C2)c2ccccc12
IC50 [1]: 2.52 µM
Activity (A549 [2]): Active

Compound: Cc1cc2ccccc2n1C[C@H](O)CN1CCc2ccccc2C1
IC50 [1]: 1.3 µM
Activity (A549 [2]): Active

Compound: Cc1cc2cc(F)ccc2n1C[C@H](O)CN1CCc2ccccc2C1
IC50 [1]: 22.5 µM
Activity (A549 [2]): Active

Compound: N#Cc1ccc2c(ccn2C[C@H](O)CN2CCc3ccccc3C2)c1
IC50 [1]: 12 µM
Activity (A549 [2]): Active

— ChEMBL document CHEMBL5620428, “Discovery of tetrahydroisoquinolineindole derivatives as first dual PRMT5 inhibitors/hnRNP E1 upregulators: Design, synthesis and biological evaluation” (Eur J Med Chem, 2023)
